Data reported in US20250073208A1, “IL-6 AND/OR IL-1BETA INHIBITOR” (AGC INC., priority 2022, published 2025).

Tests used:
[1] = test system: rats with monocrotaline-induced pulmonary hypertension; test: Monocrotaline (MCT)-induced pulmonary hypertension rat model: haemodynamics and right ventricular hypertrophy; assay type: in vivo; details: 3 weeks
Description: According to the method described in Abe K, Circ Res, 94: 385-393, 2004, a monocrotaline (MCT)-induced pulmonary hypertension rat model was prepared. Monocrotaline (manufactured by Sigma Ltd. Aldrich) was subcutaneously injected once at a dose of 60 mg/kg to 5- to 6-week-old (body weight 150-200 g) male Sprague Dawley rats (SD rat). The compound of the present invention (KAG-308) was orally administered using a gavage needle at a dose of 1 mg/kg (2 mg/kg/day) twice daily from the day of subcutaneous injection of monocrotaline until the day before measurement (“MCT+KAG-308” in FIG. 1). The same amount of solvent (water for injection) was administered for the same period to the pulmonary hypertension rat model not treated with KAG-308 (“MCT” in FIG. 1). The normal control group, which was not administered monocrotaline and KAG-308, was of the same age (“Normal” in FIG. 1). Three weeks after monocrotaline injection, right ventricular systolic pressure, systemic arterial pressure, heart rate number, and right-to-left ventricular weight ratio (right ventricular hypertrophy) were measured. Under isoflurane inhalation anesthesia, right ventricular systolic pressure was measured by the right heart catheterization method. Using a conductance catheter, systemic arterial pressure and heart rate were measured from the carotid artery. After the measurement, the rats were euthanized with a lethal dose of intravenous pentobarbital, and the hearts were excised. The weight of the left ventricle (LV) including the ventricular septum (Sep) relative to the right ventricle (RV) was measured, and the ratio was used as an index of right ventricular hypertrophy.

[2] = test system: IL-1β mRNA; test: Quantitative RT-PCR analysis of IL-1β mRNA in whole lung of monocrotaline-induced pulmonary hypertension rats; assay type: in vivo, rat (male Sprague Dawley); details: 2 mg/kg/day, 3 weeks, FIG. 7 right, result in words
[3] = test system: IL-6 mRNA; test: Quantitative RT-PCR analysis of IL-6 mRNA in whole lung of monocrotaline-induced pulmonary hypertension rats; assay type: in vivo, rat (male Sprague Dawley); details: 2 mg/kg/day, 3 weeks, FIG. 7 left
[4] = test system: rats with monocrotaline-induced pulmonary hypertension; test: Pulmonary histopathological analysis in the monocrotaline-induced pulmonary hypertension rat model; assay type: in vivo, rat (male Sprague Dawley); details: 2 mg/kg/day, 3 weeks
Description: According to the method described in Abe K, Circ Res, 94: 385-393, 2004, a monocrotaline (MCT)-induced pulmonary hypertension rat model was prepared. Monocrotaline (manufactured by Sigma Ltd. Aldrich) was subcutaneously injected once at a dose of 60 mg/kg to 5- to 6-week-old (body weight 150-200 g) male Sprague Dawley rats (SD rat). The compound of the present invention (KAG-308) was orally administered using a gavage needle at a dose of 1 mg/kg (2 mg/kg/day) twice daily from the day of subcutaneous injection of monocrotaline until the day before measurement (“MCT+KAG-308” in FIG. 1). The same amount of solvent (water for injection) was administered for the same period to the pulmonary hypertension rat model not treated with KAG-308 (“MCT” in FIG. 1). The normal control group, which was not administered monocrotaline and KAG-308, was of the same age (“Normal” in FIG. 1). Three weeks after monocrotaline injection, right ventricular systolic pressure, systemic arterial pressure, heart rate number, and right-to-left ventricular weight ratio (right ventricular hypertrophy) were measured. Under isoflurane inhalation anesthesia, right ventricular systolic pressure was measured by the right heart catheterization method. Using a conductance catheter, systemic arterial pressure and heart rate were measured from the carotid artery. After the measurement, the rats were euthanized with a lethal dose of intravenous pentobarbital, and the hearts were excised. The weight of the left ventricle (LV) including the ventricular septum (Sep) relative to the right ventricle (RV) was measured, and the ratio was used as an index of right ventricular hypertrophy. […]
Pulmonary arteries with an outer diameter of 50 to 100 μm were analyzed, and the mean medial wall thickness was measured in a blind manner (mean medial wall thickness=(outer diameter−inner diameter)/outer diameter).
Muscularization of small pulmonary arteries with an outer diameter of 50 μm or less was analyzed by immunostaining with anti-α-SMA (smooth muscular actin) antibody. According to the percentage of smooth muscle in the total circumference of the small pulmonary artery, they were defined as Non muscular (<25%), Partially muscular (25-75%), and Totally muscular (>75%), and at least 70 small pulmonary arteries of each specimen were evaluated in a blinded method.
Macrophages were measured by immunostaining using anti-CD68 antibody. The device used was a laser scanning microscope FV1200 IX83 (OLYMPUS), and observation was performed at a magnification of 400×, and CD68-positive cells were counted in 15 randomly selected fields mainly of small blood vessels.

Cc1cccc([C@@H](C)[C@H](O)/C=C/[C@@H]2[C@@H]3[C@H](C[C@H]2O)O/C(=C\CCCc2nnn[nH]2)C3(F)F)c1 [KAG-308, 4-[(Z)-(1S,5R,6R,7R)-6-[(1E,3R,4R)-3-hydroxy-4-(m-tolyl)-1-pentenyl]-7-hydroxy-2-oxa-4,4-difluoro-bicyclo[3.3.0]octan-3-ylidene]-1-(tetrazol-5-yl)butane]
increase in right ventricular systolic pressure (RVSP) ([1]; 1 mg/kg orally twice daily (2 mg/kg/day), FIG. 2 left): significantly suppressed
increase in weight ratio RV/LV+Sep (right ventricular hypertrophy) ([1]; 1 mg/kg orally twice daily (2 mg/kg/day), FIG. 2 right): significantly suppressed
left ventricular systolic pressure ([1]; 2 mg/kg/day orally, FIG. 3 left): without affecting
heart rate ([1]; 2 mg/kg/day orally, FIG. 3 right): without affecting
increase in mRNA expression level of IL-1β [2]: significantly suppressed
suppression of the increase in mRNA expression level of IL-6 [3]: 89%
increase in mRNA expression level of IL-6 ([3]; result in words): significantly suppressed
increase in infiltration of inflammatory CD68-positive macrophages ([4]; lung, anti-CD68 immunostaining, 15 fields at 400×, FIG. 6): significantly suppressed
increase in average medial wall thickness of pulmonary artery ([4]; pulmonary arteries of outer diameter 50 to 100 μm, EVG staining, FIG. 4): significantly suppressed
non-muscular percentage of small pulmonary arteries ([4]; small pulmonary arteries of outer diameter 50 μm or less, anti-α-SMA immunostaining, non muscular <25%, FIG. 5): increased
totally muscular percentage of small pulmonary arteries ([4]; small pulmonary arteries of outer diameter 50 μm or less, anti-α-SMA immunostaining, totally muscular >75%, FIG. 5): decreased
